Reference: ChEMBL document CHEMBL3232931 (J Med Chem, 2014)
The source made the active and inactive calls. The rule behind the calls is not given here.

Key:
[1] = (§1) Inhibition of SARS coronavirus papain-like protease (amino acids 1541 to 1855) expressed in Escherichia coli BL21 (DE3) cells assessed as decrease in AMC release using Z-RLRGG-AMC as substrate by multimode plate reader analysis; parameters: species or system Severe acute respiratory syndrome-related coronavirus
SARS-CoV = test: Antiviral activity against SARS coronavirus infected in african green monkey Vero E6 cells assessed as cell viability after 48 hrs by Cell Titer-Glo luminescent assay; assay type: functional, organism-based; conditions: Severe acute respiratory syndrome-related coronavirus
BL21-DE3 [2] = test: as §1; conditions: Severe acute respiratory syndrome-related coronavirus
Replicase polyprotein 1a = Replicase polyprotein 1a (Human coronavirus NL63, UniProt P0C6U6); test: (§2) Inhibition of human coronavirus NL63 PLP2 (amino acids 1565 to 1894) expressed in Escherichia coli BL21 (DE3) cells assessed as reduction of AMC release using Z-RLRGG-AMC as substrate by multimode plate reader analysis
[3] = target: Replicase polyprotein 1a (Human coronavirus NL63) (UniProt P0C6U6); test: as §2
[4] = target: Replicase polyprotein 1a (Human coronavirus NL63) (UniProt P0C6U6); test: Inhibition of human coronavirus NL63 PLP2 (amino acids 1565 to 1894) expressed in Escherichia coli BL21 (DE3) cells assessed as reduction of AMC release using Z-RLRGG-AMC as substrate at 100 uM by multimode plate reader analysis
Target sequence in this assay (P0C6U6 whole entry, the tested form may be a part): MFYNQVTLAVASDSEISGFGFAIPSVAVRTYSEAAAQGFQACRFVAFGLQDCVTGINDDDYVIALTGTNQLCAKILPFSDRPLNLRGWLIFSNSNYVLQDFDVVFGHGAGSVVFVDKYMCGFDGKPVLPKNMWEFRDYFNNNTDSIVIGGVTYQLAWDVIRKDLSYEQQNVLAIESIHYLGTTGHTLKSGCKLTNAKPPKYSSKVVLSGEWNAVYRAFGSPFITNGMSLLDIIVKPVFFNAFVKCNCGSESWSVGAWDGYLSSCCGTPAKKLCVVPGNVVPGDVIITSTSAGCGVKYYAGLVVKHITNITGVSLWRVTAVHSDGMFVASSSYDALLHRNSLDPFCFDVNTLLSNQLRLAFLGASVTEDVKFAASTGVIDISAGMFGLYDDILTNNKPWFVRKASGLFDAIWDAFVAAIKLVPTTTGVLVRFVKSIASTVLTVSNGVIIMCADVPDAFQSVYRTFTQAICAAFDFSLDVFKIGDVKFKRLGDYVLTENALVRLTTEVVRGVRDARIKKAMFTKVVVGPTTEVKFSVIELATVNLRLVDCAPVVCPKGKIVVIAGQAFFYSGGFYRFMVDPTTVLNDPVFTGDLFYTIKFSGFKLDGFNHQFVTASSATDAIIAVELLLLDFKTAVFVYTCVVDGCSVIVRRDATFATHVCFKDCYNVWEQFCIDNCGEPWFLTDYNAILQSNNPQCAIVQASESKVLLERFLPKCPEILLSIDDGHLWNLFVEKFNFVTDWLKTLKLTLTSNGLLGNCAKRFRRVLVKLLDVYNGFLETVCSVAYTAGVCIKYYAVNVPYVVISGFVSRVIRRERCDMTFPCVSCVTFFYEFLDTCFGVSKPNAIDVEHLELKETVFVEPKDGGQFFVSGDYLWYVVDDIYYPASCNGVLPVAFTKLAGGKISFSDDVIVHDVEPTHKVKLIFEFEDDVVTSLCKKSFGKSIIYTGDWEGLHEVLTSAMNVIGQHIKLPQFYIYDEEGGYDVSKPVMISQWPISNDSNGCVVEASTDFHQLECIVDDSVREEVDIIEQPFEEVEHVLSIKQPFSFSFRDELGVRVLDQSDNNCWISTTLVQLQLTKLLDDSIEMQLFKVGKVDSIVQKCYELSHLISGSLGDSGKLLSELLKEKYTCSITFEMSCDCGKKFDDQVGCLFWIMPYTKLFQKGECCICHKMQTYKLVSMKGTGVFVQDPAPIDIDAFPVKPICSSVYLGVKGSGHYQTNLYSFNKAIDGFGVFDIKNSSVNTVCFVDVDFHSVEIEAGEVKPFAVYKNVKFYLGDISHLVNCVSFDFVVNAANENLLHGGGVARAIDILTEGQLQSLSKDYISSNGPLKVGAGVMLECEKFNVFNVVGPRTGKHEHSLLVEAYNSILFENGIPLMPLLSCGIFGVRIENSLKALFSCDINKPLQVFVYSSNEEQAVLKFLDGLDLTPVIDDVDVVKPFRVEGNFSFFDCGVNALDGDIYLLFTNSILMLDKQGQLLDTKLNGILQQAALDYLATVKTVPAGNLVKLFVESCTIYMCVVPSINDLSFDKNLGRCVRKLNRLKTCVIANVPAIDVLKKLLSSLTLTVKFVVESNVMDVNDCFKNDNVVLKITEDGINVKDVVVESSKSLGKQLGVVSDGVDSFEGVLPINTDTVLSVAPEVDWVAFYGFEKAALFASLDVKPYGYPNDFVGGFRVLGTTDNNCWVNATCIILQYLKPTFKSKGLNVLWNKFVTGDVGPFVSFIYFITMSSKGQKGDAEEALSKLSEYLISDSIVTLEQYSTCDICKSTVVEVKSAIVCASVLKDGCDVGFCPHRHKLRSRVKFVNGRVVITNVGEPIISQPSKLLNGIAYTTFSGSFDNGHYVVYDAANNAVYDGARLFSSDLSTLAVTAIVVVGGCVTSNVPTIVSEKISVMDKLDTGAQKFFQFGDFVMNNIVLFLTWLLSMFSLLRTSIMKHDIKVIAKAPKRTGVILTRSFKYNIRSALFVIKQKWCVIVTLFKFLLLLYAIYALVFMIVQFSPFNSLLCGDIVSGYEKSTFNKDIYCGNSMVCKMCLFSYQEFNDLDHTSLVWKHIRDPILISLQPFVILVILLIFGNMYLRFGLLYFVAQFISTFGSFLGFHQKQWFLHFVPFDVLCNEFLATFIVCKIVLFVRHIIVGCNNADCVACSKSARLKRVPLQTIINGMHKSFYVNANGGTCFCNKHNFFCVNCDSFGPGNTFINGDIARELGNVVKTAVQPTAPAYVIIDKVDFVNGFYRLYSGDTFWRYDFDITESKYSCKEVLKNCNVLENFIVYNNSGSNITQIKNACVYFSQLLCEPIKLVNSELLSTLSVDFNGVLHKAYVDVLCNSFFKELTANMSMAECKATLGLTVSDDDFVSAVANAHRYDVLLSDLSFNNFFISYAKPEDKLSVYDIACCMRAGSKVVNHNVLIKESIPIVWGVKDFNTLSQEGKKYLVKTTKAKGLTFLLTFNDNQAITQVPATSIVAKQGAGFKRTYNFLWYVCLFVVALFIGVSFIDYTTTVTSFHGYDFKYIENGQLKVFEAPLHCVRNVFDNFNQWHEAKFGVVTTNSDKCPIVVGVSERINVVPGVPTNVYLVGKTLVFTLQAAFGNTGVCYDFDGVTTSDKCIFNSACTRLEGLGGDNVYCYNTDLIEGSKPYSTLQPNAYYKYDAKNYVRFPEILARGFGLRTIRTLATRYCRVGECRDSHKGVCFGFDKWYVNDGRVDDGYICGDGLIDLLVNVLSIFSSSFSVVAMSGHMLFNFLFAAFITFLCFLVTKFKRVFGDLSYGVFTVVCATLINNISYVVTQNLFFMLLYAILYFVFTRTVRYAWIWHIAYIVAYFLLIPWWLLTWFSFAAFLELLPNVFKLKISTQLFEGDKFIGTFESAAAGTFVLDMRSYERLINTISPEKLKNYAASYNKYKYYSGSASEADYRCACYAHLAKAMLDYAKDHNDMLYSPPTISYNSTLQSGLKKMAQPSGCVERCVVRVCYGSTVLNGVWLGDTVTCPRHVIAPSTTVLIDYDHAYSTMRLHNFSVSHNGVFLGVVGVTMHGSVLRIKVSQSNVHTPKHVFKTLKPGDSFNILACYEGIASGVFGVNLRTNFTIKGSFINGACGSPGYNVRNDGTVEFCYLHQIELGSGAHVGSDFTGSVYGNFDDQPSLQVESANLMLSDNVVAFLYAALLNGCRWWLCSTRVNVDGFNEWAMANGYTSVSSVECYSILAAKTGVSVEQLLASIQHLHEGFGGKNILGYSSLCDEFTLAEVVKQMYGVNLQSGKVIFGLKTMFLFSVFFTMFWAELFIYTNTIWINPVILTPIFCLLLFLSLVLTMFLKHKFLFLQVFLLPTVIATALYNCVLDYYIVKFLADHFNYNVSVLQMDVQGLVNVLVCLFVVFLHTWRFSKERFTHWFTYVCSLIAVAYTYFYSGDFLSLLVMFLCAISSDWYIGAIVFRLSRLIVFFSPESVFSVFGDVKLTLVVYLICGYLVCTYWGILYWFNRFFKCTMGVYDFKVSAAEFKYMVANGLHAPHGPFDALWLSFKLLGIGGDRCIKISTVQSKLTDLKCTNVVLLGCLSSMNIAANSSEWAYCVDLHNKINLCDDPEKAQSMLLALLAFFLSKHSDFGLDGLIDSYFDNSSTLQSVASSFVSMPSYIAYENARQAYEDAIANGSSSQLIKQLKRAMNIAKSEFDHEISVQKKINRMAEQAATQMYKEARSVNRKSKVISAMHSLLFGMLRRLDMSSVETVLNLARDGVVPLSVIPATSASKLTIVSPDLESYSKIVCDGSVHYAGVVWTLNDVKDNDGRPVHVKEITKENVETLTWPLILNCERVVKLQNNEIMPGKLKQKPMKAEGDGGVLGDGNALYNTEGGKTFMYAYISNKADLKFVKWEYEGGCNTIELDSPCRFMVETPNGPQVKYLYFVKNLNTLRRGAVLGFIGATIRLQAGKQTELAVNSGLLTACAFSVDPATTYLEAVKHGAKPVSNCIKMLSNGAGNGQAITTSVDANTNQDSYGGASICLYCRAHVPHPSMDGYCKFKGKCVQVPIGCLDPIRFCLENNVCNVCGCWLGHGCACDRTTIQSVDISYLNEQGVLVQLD

[5] = Therapeutic index, ratio of CC50 for african green monkey Vero E6 cells to EC50 for SARS coronavirus infected in african green monkey Vero E6 cells; assay type: cell-based; conditions: read-out: Ratio CC50/EC50
HEK293 = test: Cytotoxicity against human HEK293 cells assessed as cell viability after 48 hrs by Cell Titer-Glo luminescent assay; assay type: cell-based; conditions: hek293, 48 h
BL21-DE3 [6] = test: Inhibition of SARS coronavirus papain-like protease (amino acids 1541 to 1855) expressed in Escherichia coli BL21 (DE3) cells assessed as decrease in AMC release using Z-RLRGG-AMC as substrate by serum shift assay based multimode plate reader analysis in presence of 5 to 20% human serum albumin; conditions: Severe acute respiratory syndrome-related coronavirus
[7] = Cytotoxicity against african green monkey Vero E6 cells assessed as cell viability after 48 hrs by Cell Titer-Glo luminescent assay; assay type: cell-based; conditions: chlorocebus sabaeus
[8] = Metabolic stability in mouse liver microsomes assessed as parent compound remaining at 1 uM after 15 mins; assay type: ADME; conditions: read-out: Stability
Liver = test: Half life in mouse liver microsomes at 1 uM; assay type: ADME

Compound | IC50 [1] [µM] | further results
CC(c1cccc2cccnc12)N1CCC(C(=O)NCc2cccc(F)c2)CC1 (racemic) | 7 | EC50 (SARS-CoV): > 50 µM
CC(=O)NCc1cccc(CNC(=O)C2CCN([C@H](C)c3cccc4ccccc34)CC2)c1 | 20.4 | 
C[C@H](c1cccc2ccccc12)N1CCC(C(=O)NCc2cccnc2)CC1 | 26.3 | 
CCc1ccc(CNC(=O)C2CCN([C@H](C)c3cccc4ccccc34)CC2)cc1 | 0.47 | 
COC[C@H](NC(=O)C1CCN([C@H](C)c2cccc3ccccc23)CC1)c1ccccc1 | 18 | 
CNC(=O)c1cccc(CNC(=O)C2CCN([C@H](C)c3cccc4ccccc34)CC2)c1 | 0.63 | 
CC(c1cccc2cnccc12)N1CCC(C(=O)NCc2cccc(F)c2)CC1 (racemic) | 6.8 | EC50 (SARS-CoV): > 50 µM
CC(c1nccc2ccccc12)N1CCC(C(=O)NCc2cccc(F)c2)CC1 (racemic) | 30.8 | 
C[C@H](NC(=O)C1CCN([C@H](C)c2cccc3ccccc23)CC1)c1ccccc1 | 12.7 | 
CNC(=O)c1ccc(CNC(=O)C2CCN([C@H](C)c3cccc4ccccc34)CC2)cc1 | 0.6 | 
C[C@H](c1cccc2ccccc12)N1CCC(C(=O)N[C@H](C)c2ccccc2)CC1 | 13.5 | 
O=C(NCc1ccc2c(c1)OCO2)C1CCN(C(Cc2ccccc2)c2cccc3ccccc23)CC1 (racemic) | > 100 | 
CC(=O)Nc1ccc(CNC(=O)C2CCN([C@H](C)c3cccc4ccccc34)CC2)cc1 | 5.7 | Imax (BL21-DE3 [2]): 94%; IC50 (Replicase polyprotein 1a): 37 µM; Imax [3]: 42%; inhibition [4]: > 30%
COCC(c1cccc2ccccc12)N1CCC(C(=O)NCc2ccc3c(c2)OCO3)CC1 (racemic) | > 100 | 
C[C@H](c1cccc2ccccc12)N1CCC(C(=O)NCc2ccncc2)CC1 | 18.3 | 
C[C@H](c1cccc2ccccc12)N1CCC(C(=O)NCCc2cccc(F)c2)CC1 | 1.9 | 
CC(c1cccc2ncccc12)N1CCC(C(=O)NCc2cccc(F)c2)CC1 (racemic) | 4.5 | 
COC[C@@H](NC(=O)C1CCN([C@H](C)c2cccc3ccccc23)CC1)c1ccccc1 | 1.9 | selectivity ratio [5]: > 8.5; CC50 (HEK293): > 100 µM; inhibition (BL21-DE3 [6]): Active; EC50 (SARS-CoV): 11.7 µM; CC50 [7]: > 100 µM
C[C@H](c1cccc2ccccc12)N1CCC(C(=O)NCc2ccc(Cl)cc2)CC1 | 0.58 | 
COc1cc(CNC(=O)C2CCN([C@H](C)c3cccc4ccccc34)CC2)ccn1 | 0.35 | CC50 (HEK293): > 100 µM; inhibition (BL21-DE3 [6]): Active; Imax (BL21-DE3 [2]): 100%; EC50 (SARS-CoV): 9.5 µM; remaining at 0.25 h, 1 µM [8]: 30%; CC50 [7]: > 100 µM; IC50 (Replicase polyprotein 1a): 59 µM; Imax [3]: 67%; inhibition [4]: > 30%; t1/2 (Liver): 8 min
C[C@H](c1cccc2ccccc12)N1CCC(C(=O)NCCc2ccc(Cl)cc2)CC1 | 1.6 | 
O=C(NCc1cccc(F)c1)C1CCN(C2CCCc3ccc4ccccc4c32)CC1 (stereo not drawn) | 5.1 | 
O=C(NCc1ccc2c(c1)OCO2)C1CCN(C(CO)c2cccc3ccccc23)CC1 (racemic) | 32 | 
CCC(c1cccc2ccccc12)N1CCC(C(=O)NCc2ccc3c(c2)OCO3)CC1 (racemic) | 17.2 | 
C[C@H](c1cccc2ccccc12)N1CCC(C(=O)NCc2ccc(F)c(F)c2)CC1 | 29.2 | Imax (BL21-DE3 [2]): 78%; IC50 (Replicase polyprotein 1a): 44 µM; Imax [3]: 48%; inhibition [4]: > 30%
C[C@H](c1cccc2ccccc12)N1CCC(C(=O)NCc2cccc(Cl)c2)CC1 | 27.2 | 
C[C@H](c1cccc2ccccc12)N1CCC(C(=O)NCc2ccccc2)CC1 | 2.2 | EC50 (SARS-CoV): > 50 µM
